Reference: patent US12685733B2, “Indole molecules and use thereof in the inhibition of DNA polymerases” (BioVentures, LLC, priority 2019, dated 2026)

Key:
hpol κ = target: T1, hpol κ (Homo sapiens, UniProt Q9UBT6); test: Fluorescence-based (TAMRA/BHQ strand displacement) DNA polymerase activity assay; settings: for activity at 40 µM: read-out: % Activity Mean (hpol κ activity)
T1 sequence (Q9UBT6 19-526): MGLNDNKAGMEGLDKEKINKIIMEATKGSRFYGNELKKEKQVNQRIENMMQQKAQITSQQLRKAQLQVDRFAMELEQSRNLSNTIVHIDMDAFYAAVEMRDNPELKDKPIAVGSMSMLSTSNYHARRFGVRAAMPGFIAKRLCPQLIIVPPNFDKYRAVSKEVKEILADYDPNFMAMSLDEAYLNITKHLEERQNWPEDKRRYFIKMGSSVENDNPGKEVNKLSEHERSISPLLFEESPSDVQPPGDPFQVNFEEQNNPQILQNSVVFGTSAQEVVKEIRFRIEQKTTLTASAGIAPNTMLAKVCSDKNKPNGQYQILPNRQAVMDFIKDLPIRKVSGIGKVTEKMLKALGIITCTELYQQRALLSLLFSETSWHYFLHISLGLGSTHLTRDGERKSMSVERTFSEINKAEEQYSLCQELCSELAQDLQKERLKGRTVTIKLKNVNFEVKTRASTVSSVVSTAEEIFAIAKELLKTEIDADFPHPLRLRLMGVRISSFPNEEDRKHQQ

recombinant hpol κ = target: T2, recombinant hpol κ (Homo sapiens, UniProt Q9UBT6); settings: earlier screen; cited from earlier work
T2 sequence (Q9UBT6 1-870): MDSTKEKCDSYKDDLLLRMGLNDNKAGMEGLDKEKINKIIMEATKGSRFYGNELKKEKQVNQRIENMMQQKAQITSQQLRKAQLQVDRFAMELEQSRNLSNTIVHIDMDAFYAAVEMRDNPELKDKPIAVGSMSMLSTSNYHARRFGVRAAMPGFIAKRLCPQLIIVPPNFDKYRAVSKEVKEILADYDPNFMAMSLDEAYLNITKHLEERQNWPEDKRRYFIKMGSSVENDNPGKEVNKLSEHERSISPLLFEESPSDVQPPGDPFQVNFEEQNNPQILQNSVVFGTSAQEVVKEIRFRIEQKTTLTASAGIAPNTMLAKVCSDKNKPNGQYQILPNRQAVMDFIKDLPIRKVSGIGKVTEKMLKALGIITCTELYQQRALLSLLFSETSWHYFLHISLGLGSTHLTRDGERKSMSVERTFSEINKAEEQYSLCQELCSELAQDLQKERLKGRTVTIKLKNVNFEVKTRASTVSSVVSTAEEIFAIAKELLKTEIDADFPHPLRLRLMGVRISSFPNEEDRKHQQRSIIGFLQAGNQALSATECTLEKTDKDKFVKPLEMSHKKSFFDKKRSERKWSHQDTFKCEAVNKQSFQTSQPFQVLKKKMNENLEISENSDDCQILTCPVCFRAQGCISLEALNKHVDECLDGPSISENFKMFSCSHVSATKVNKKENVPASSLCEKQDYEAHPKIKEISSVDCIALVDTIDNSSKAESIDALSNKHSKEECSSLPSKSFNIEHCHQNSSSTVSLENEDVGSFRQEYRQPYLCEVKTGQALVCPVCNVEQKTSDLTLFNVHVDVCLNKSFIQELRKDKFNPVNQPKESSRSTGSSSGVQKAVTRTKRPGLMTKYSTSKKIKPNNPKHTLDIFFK

[1] = tested on: hpol κ-deficient HAP-1 cells; test: Clonogenic survival assay; format: cell-based, human; settings: 250 μM TMZ
Procedure: (§1) HAP-1 and hpol κ^KO cells were purchased from Horizons Discovery Group LLC (Cambridge, UK). The company generated the Hap1 cells using CRISPR-Cas9 technology and the elimination of kappa expression was confirmed by Sanger sequence genome editing. We further confirmed the elimination of hpol κ protein expression by Western blotting (data not shown). Hap1 cells were cultured in Iscove's modified Dulbecco's medium (IMDM; Invitrogen, CA, USA) supplemented with 10% (v/v) fetal bovine serum (FBS; Atlas Biologicals, CO, USA) and 1% (v/v) antibiotic/antimycotic solution (Sigma-Aldrich, MO, USA).T98G cells were purchased from ATCC (American Type Culture Collection, VA, USA). T98G cells were cultured in MEM (Minimum Essential Medium) (Invitrogen, CA, USA) supplemented with 10% (v/v) FBS (Fetal Bovine Serum, Atlas Biologicals, CO, USA) and antibiotic/antimycotic solution (1%, v/v) (Sigma-Aldrich, MO, USA). NT2 cells were kindly provided by Dr. Michael Borrelli (University of Arkansas for Medical Sciences, AR, USA). NT2 cells were cultured in DMEM/F12 (Dulbecco's Modified Eagle Medium) supplemented with 10% (v/v) FCS (Fetal Calf Serum) and antibiotic/antimycotic solution (1%) (Sigma-Aldrich, MO, USA).
(§2) To measure the clonogenic ability, cells were plated (500 cells per well) in 6-well dishes. In the case of HAP-1 cells, cells were treated the following day after plating, with temozolomide (TMZ) (0, 1, 5, 50, 125 and 250 μM) alone or in combination with UAMS-48 (0.1 and 0.5 μM) for 1 hour. In the case of T98G and NT2 cells, treatment was done on the following day of plating, with increasing concentrations of TMZ alone or in combination with UAMS-48 (50 nM) for 3 hrs. T98G and NT2 cells were treated with increasing concentrations of UAMS-48 for 3 hrs. After treatment, cells were cultured in fresh IMDM supplemented with 10% FBS for 10 days. The colonies were gently washed with 1×PBS, fixed with 3.7% (v/v) formaldehyde for 20 mins at RT and stained with crystal violet solution (Sigma-Aldrich, MO, USA) for 30 mins at RT.
(§3) The fixed crystal-violet stained colonies in each 6-well plate were examined under an EVOS XL Core imaging system (Thermo Fisher Scientific) under bright-field, and the colonies were inspected manually. […] Color images of each 6-well plate were captured and opened for processing using the Fiji version of the freely available software ImageJ. Setting the appropriate threshold for counting colonies for each cell type, corresponding to the respective radii calculated previously, the colonies were counted using the Colony Area plugin of ImageJ. Manual counting was performed on a few wells picked randomly, and the colony count so obtained was tallied with the number obtained using ImageJ, to ensure they matched reasonably. All experiments were performed in triplicate, and the colony number for each well was expressed as the mean (±standard deviation). The results were plotted to generate a dose response curve for TMZ treatment using the software Graphpad Prism, where the mean number of colonies was plotted along the Y-axis, and the TMZ concentration along the X-axis. Bar charts comparing the mean number of colonies as a function of the various conditions were also plotted for both cell types. Combination index values were calculated using the Chou-Talalay method (Chou 2010).

[2] = tested on: hpol κ-proficient HAP-1 cells; test: Clonogenic survival assay; format: cell-based, human; settings: 250 μM TMZ alone
Procedure: as §1, §2, §3

| Structure (SMILES) | activity at 40 µM (hpol κ) | further results |
| --- | --- | --- |
| Cc1c(/C=N/NC(=N)N)c2ccccc2n1C(=O)c1cccc2ccccc12 [IAG-1] | 105% | IC50 (hpol κ): 84.6 µM |
| COc1ccc2c(c1)c(/C=N/NC(=N)N)cn2C(=O)c1cccc2ccccc12 [IAG-2] | 104% | IC50 (hpol κ): 68.6 µM |
| N=C(N)N/N=C/c1cn(Cc2ccc3ccccc3c2)c2ccccc12 [IAG-4] | 95% | IC50 (hpol κ): 48.3 µM |
| COc1ccc2c(c1)c(/C=N/NC(=N)N)cn2Cc1ccc2ccccc2c1 [IAG-5] | 94% | IC50 (hpol κ): 43.7 µM |
| N=C(N)N/N=C/c1cn(Cc2cccc3ccccc23)c2ccc(Cl)cc12 [IAG-7] | 64% | IC50 (hpol κ): 24.2 µM |
| N=C(N)N/N=C/c1cn(Cc2cccc3ccccc23)c2ccc(Br)cc12 [IAG-8] | 57% | IC50 (hpol κ): 7.2 to 24.2 µM |
| N=C(N)N/N=C/c1cn(C(=O)c2ccc3ccccc3c2)c2ccc(Cl)cc12 [IAG-9] | 30% | IC50 (hpol κ): 18.8 µM |
| O=C1NC(=S)NC(=O)C1=Cc1cn(Cc2ccc3ccccc3c2)c2ccccc12 [IBA-1] | 116% | – |
| COc1ccc2c(c1)c(C=C1C(=O)N(C)C(=O)N(C)C1=O)c(C)n2Cc1cccc2ccccc12 [IBA-2] | 114% | – |
| Cc1c(C=C2C(=O)N(C)C(=O)N(C)C2=O)c2cc(Cl)ccc2n1Cc1cccc2ccccc12 [IBA-3] | 111% | – |
| COc1ccc(Cn2cc(C=C3C(=O)NC(=O)NC3=O)c3cccnc32)cc1 [IBA-4] | 110% | – |
| O=C1NC(=S)NC(=O)C1=Cc1cn(Cc2cccc3ccccc23)c2ncc(Cl)cc12 [IBA-5] | 109% | – |
| O=C1NC(=S)NC(=O)C1=Cc1cn(Cc2cccc3ccccc23)c2ccc(Cl)cc12 [IBA-6] | 108% | – |
| Cc1c(C=C2C(=O)NC(=O)NC2=O)c2ccccc2n1C(=O)c1cccc2ccccc12 [IBA-7] | 107% | – |
| O=C1NC(=O)C(=Cc2cn(Cc3cccc4ccccc34)c3ncc(Cl)cc23)C(=O)N1 [IBA-8] | 103% | – |
| O=C1NC(=O)C(=Cc2cn(Cc3cccc(C(F)(F)F)c3)c3ncccc23)C(=O)N1 [IBA-9] | 103% | – |
| N#Cc1ccc(Cn2cc(C=C3C(=O)NC(=O)NC3=O)c3ccccc32)cc1 [IBA-10] | 102% | – |
| Cc1c(C=C2C(=O)NC(=S)NC2=O)c2cc(Cl)ccc2n1Cc1cccc2ccccc12 [IBA-11] | 99.1% | – |
| Cc1c(C=C2C(=O)NC(=O)NC2=O)c2cc(Cl)ccc2n1Cc1cccc2ccccc12 [IBA-12] | 96.6% | – |
| O=C1NC(=S)NC(=O)C1=Cc1cn(Cc2cccc(C(F)(F)F)c2)c2ncccc12 [IBA-13] | 96.6% | – |
| Cc1c(C=C2C(=O)NC(=O)NC2=O)c2ccccc2n1C(=O)c1ccc2ccccc2c1 [IBA-14] | 95.7% | – |
| COc1ccc(Cn2cc(C=C3C(=O)NC(=S)NC3=O)c3cccnc32)cc1 [IBA-15] | 95.1% | – |

| Structure (SMILES) | activity at 40 µM (hpol κ) | further results |
| --- | --- | --- |
| N#Cc1ccc(Cn2cc(C=C3C(=O)NC(=S)NC3=O)c3cccnc32)cc1 [IBA-16] | 94.5% | – |
| COc1ccc2c(c1)c(C=C1C(=O)NC(=S)NC1=O)cn2C(=O)c1cccc2ccccc12 [IBA-17] | 93.8% | – |
| Cc1c(C=C2C(=O)NC(=S)NC2=O)c2ccccc2n1C(=O)c1ccc2ccccc2c1 [IBA-18] | 93.5% | – |
| Cc1c(C=C2C(=O)NC(=O)NC2=O)c2ccccc2n1Cc1ccc(Br)cc1 [IBA-19] | 93.3% | – |
| COc1ccc2c(c1)c(C=C1C(=O)NC(=S)NC1=O)cn2C(=O)c1ccc2ccccc2c1 [IBA-20] | 92.9% | – |
| O=C1NC(=O)C(=Cc2cn(Cc3ccc4ccccc4c3)c3ncc(Cl)cc23)C(=O)N1 [IBA-21] | 92.2% | – |
| O=C1NC(=S)NC(=O)C1=Cc1cn(Cc2ccc(Br)cc2)c2ccc(COCCN3CCOCC3)cc12 [IBA-22] | 91.1% | – |
| COc1ccc2c(c1)c(C=C1C(=O)NC(=S)NC1=O)c(C)n2Cc1cccc2ccccc12 [IBA-23] | 91% | – |
| N#Cc1ccc(Cn2cc(C=C3C(=O)NC(=O)NC3=O)c3cccnc32)cc1 [IBA-24] | 88.8% | – |
| O=C1NC(=S)NC(=O)C1=Cc1cn(C(=O)c2ccc3ccccc3c2)c2ccc(Cl)cc12 [IBA-25] | 87.6% | – |
| Cc1c(C=C2C(=O)NC(=S)NC2=O)c2ccccc2n1C(=O)c1cccc2ccccc12 [IBA-26] | 86.4% | – |
| O=C1NC(=S)NC(=O)C1=Cc1cn(C(=O)c2cccc3ccccc23)c2ccc(Cl)cc12 [IBA-27] | 85.8% | – |
| O=C1NC(=S)NC(=O)C1=Cc1cn(Cc2ccc3ccccc3c2)c2ncc(Cl)cc12 [IBA-28] | 84.4% | – |
| O=C1NC(=S)NC(=O)C1=Cc1cn(C(=O)c2cccc3ccccc23)c2ccccc12 [IBA-29] | 83.3% | – |
| O=C1NC(=S)NC(=O)C1=Cc1cn(C(=O)c2ccc3ccccc3c2)c2ccccc12 [IBA-30] | 81.4% | – |
| O=C1NC(=O)C(=Cc2cn(Cc3ccc4ccccc4c3)c3ccc(Cl)cc23)C(=O)N1 [IBA-31] | 67.6% | – |
| O=C1NC(=S)NC(=O)C1=Cc1cn(Cc2ccc3ccccc3c2)c2ccc(Cl)cc12 [IBA-32] | 56.5% | turnover number (kcat), hpol κ-catalyzed dTTP insertion (hpol κ; steady-state kinetics with varying inhibitor concentration): it was the kcat and not the KdNTP that was altered |
| O=C1NC(=O)C(=Cc2cn(Cc3ccc4ccccc4c3)c3ccccc23)C(=O)N1 [IBA-33] | 17.9% | – |
| O=C1NC(=S)NC(=O)C1=Cc1cn(Cc2cccc3ccccc23)c2ccc(Br)cc12 [IBA-34] | 3.7% | – |
| CC(C)c1ccc2c(c1)c(SC(C)(C)C)c(CC(C)(C)C(=O)O)n2Cc1ccc(Cl)cc1 [MK-886] | – | IC50 for inhibition of recombinant hpol κ (recombinant hpol κ): tens of micromolar |
| Cn1nnc2c(C(N)=O)ncn2c1=O [TMZ, temozolomide, reference compound] | – | colonies formed relative to untreated cells [1]: less than 50%; colonies formed relative to control [2]: ~ 75% |
